Laboratory results: patent US6376497B1, “Antifungal azole derivatives having a fluorinated vinyl group and process for preparing same” (Korea Research Institute of Chemical Technology, priority 1999, dated 2002)

Columns and labels:
Test in all cases: In vitro antifungal activity, microbroth dilution MIC
Assay type in all cases: cell-based
Settings in all cases: RPMI-1640, 35° C., 4 to 48 hours, no growth observed
[1] = system: Aspergillus furnigatus B. 19119
Method in brief: (§1)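 Broth microdilution adapted from NCCLS M27, in RPMI-1640 with 0.165 M MOPS, pH 7.0. Yeast or mould inoculum at 2×10^3 CFU/ml was mixed 1:1 with DMSO-derived compound solutions (200 to 0.10 μg/ml before mixing) and incubated at 35 °C for 4 to 48 h. MIC was the concentration showing no growth.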

[2] = system: Aspergillus niger A. 16404
Method in brief: as §1

[3] = system: Candida albicans A. 10231
Method in brief: as §1

Candida albicans C1-2 = system: Candida albicans C1-2
Method in brief: as §1

[4] = system: Candida albicans IFO. 1385
Method in brief: as §1

Candida krusei K. 11655 = system: Candida krusei K. 11655
Method in brief: as §1

[5] = system: Candida parapsitosis A. 7330
Method in brief: as §1

[6] = system: Candida pseudotropicalis K. 11658
Method in brief: as §1

[7] = system: Candida tropicalis A. 13803
Method in brief: as §1

[8] = system: Cryptococcus neoformans A. 34144
Method in brief: as §1

[9] = system: Cryptococcus neoformans B. 42419
Method in brief: as §1

[10] = system: Cryptococcus neoformans IFM. 40092
Method in brief: as §1

[11] = system: Torulopsis glabrata B. 16205
Method in brief: as §1

[12] = system: Trichophyton mentagrophytes A. 9129
Method in brief: as §1

[13] = system: Trichophyton mentagrophytes B. 32663
Method in brief: as §1

Minimal inhibitory concentration(MIC), A furnigatus B. 19119 [1] [µg/mL] | Minimal inhibitory concentration(MIC), A. niger A. 16404 [2] [µg/mL] | Minimal inhibitory concentration(MIC), C. albicans A. 10231 [3] [µg/mL] | Minimal inhibitory concentration(MIC), C. albicans C1-2 (Candida albicans C1-2) [µg/mL] | Minimal inhibitory concentration(MIC), C. albicans IFO. 1385 [4] [µg/mL] | Minimal inhibitory concentration(MIC), C. krusei K. 11655 (Candida krusei K. 11655) [µg/mL] | Minimal inhibitory concentration(MIC), C. parapsitosis A. 7330 [5] [µg/mL] | Minimal inhibitory concentration(MIC), C. pseudotropicalis K. 11658 [6] [µg/mL] | Minimal inhibitory concentration(MIC), C. tropicalis A. 13803 [7] [µg/mL] | Minimal inhibitory concentration(MIC), Cry. neoformans A. 34144 [8] [µg/mL] | Minimal inhibitory concentration(MIC), Cry. neoformans B. 42419 [9] [µg/mL] | Minimal inhibitory concentration(MIC), Cry. neoformans IFM. 40092 [10] [µg/mL] | Minimal inhibitory concentration(MIC), T. glabrata B. 16205 [11] [µg/mL] | Minimal inhibitory concentration(MIC), T. mentagrophytes A. 9129 [12] [µg/mL] | Minimal inhibitory concentration(MIC), T. mentagrophytes B. 32663 [13] [µg/mL] | Structure (SMILES)
100 | >100 | 100 | 100 | 6.25 | >100 | >100 | >100 | >100 | 1.56 | 1.56 | 0.78 | >100 | 100 | >100 | FC(=Cc1cccc(Cl)c1)Oc1ccc(OCC2COC(Cn3ccnc3)(c3ccc(Cl)cc3Cl)O2)cc1 (mixture of isomers) [Ex. 91]
>100 | >100 | 25.0 | 50.0 | 3.13 | >100 | >100 | >100 | >100 | 3.13 | 3.13 | 0.78 | 50.0 | 25.0 | 12.5 | FC(=Cc1ccc(F)cc1)Oc1ccc(OCC2COC(Cn3ccnc3)(c3ccc(Cl)cc3Cl)O2)cc1 (mixture of isomers) [Ex. 92]
>100 | >100 | 100 | >100 | 6.25 | >100 | >100 | >100 | >100 | 12.5 | >100 | 1.56 | 100 | 25.0 | 25.0 | FC(Oc1ccc(OCC2COC(Cn3ccnc3)(c3ccc(Cl)cc3Cl)O2)cc1)=C(c1ccccc1)C(F)(F)F (mixture of isomers) [Ex. 93]

Continued, compound first:

Structure (SMILES) | Minimal inhibitory concentration(MIC), A furnigatus B. 19119 [1] [µg/mL] | Minimal inhibitory concentration(MIC), A. niger A. 16404 [2] [µg/mL] | Minimal inhibitory concentration(MIC), C. albicans A. 10231 [3] [µg/mL] | Minimal inhibitory concentration(MIC), C. albicans C1-2 (Candida albicans C1-2) [µg/mL] | Minimal inhibitory concentration(MIC), C. albicans IFO. 1385 [4] [µg/mL] | Minimal inhibitory concentration(MIC), C. krusei K. 11655 (Candida krusei K. 11655) [µg/mL] | Minimal inhibitory concentration(MIC), C. parapsitosis A. 7330 [5] [µg/mL] | Minimal inhibitory concentration(MIC), C. pseudotropicalis K. 11658 [6] [µg/mL] | Minimal inhibitory concentration(MIC), C. tropicalis A. 13803 [7] [µg/mL] | Minimal inhibitory concentration(MIC), Cry. neoformans A. 34144 [8] [µg/mL] | Minimal inhibitory concentration(MIC), Cry. neoformans B. 42419 [9] [µg/mL] | Minimal inhibitory concentration(MIC), Cry. neoformans IFM. 40092 [10] [µg/mL] | Minimal inhibitory concentration(MIC), T. glabrata B. 16205 [11] [µg/mL] | Minimal inhibitory concentration(MIC), T. mentagrophytes A. 9129 [12] [µg/mL] | Minimal inhibitory concentration(MIC), T. mentagrophytes B. 32663 [13] [µg/mL]
CCOc1ccc(C(=C(F)OCC2COC(Cn3cncn3)(c3ccc(Cl)cc3Cl)O2)C(F)(F)F)cc1 (mixture of isomers) [Ex. 85] | >100 | >100 | 100 | 100 | 25.0 | >100 | >100 | >100 | >100 | 1.56 | 1.56 | 0.39 | >100 | >100 | >100
FC(OCC1COC(Cn2cncn2)(c2ccc(Cl)cc2Cl)O1)=C(c1ccc(Cl)cc1)C(F)(F)F (mixture of isomers) [Ex. 86] | >100 | >100 | 100 | 100 | 12.5 | >100 | >100 | >100 | >100 | 1.56 | 1.56 | 0.78 | >100 | >100 | >100
FC(OCC1COC(Cn2cncn2)(c2ccc(Cl)cc2Cl)O1)=C(c1ccc(F)cc1)C(F)(F)F (mixture of isomers) [Ex. 87] | >100 | >100 | >100 | >100 | 6.25 | >100 | >100 | >100 | >100 | 1.56 | 1.56 | 0.78 | >100 | >100 | >100
FC(=Cc1ccccc1)Oc1ccc(OCC2COC(Cn3ccnc3)(c3ccc(Cl)cc3Cl)O2)cc1 (mixture of isomers) [Ex. 88] | >100 | 100 | 100 | 100 | 6.25 | >100 | >100 | >100 | >100 | 1.56 | 1.56 | 0.78 | >100 | 100 | 100
Cc1ccc(C=C(F)Oc2ccc(OCC3COC(Cn4ccnc4)(c4ccc(Cl)cc4Cl)O3)cc2)cc1 (mixture of isomers) [Ex. 89] | 100 | >100 | 100 | 100 | 25.0 | 12.5 | 12.5 | 6.25 | 100 | 3.13 | 1.56 | 0.78 | 50.0 | 6.25 | 6.25
COc1cccc(C=C(F)Oc2ccc(OCC3COC(Cn4ccnc4)(c4ccc(Cl)cc4Cl)O3)cc2)c1 (mixture of isomers) [Ex. 90] | >100 | >100 | 100 | 100 | 12.5 | >100 | >100 | >100 | >100 | 12.5 | 6.25 | 0.78 | 100 | 50.0 | 50.0
